From US20040156851A1, “HMGB1 combination therapies” (Critical Therapeutics, Inc., priority 2002, published 2004)

Legend:
RAW 264.7 cells = experiment: TNF release from RAW 264.7 cells stimulated with HMGB1, mutants or B box peptides (L929 cytotoxicity bioassay); format: cell-based, murine; details: for TNF release by synthetic B box peptide fragments: synthetic peptide 10 μg/ml, 10 hours (FIG. 3)
Method: Murine macrophage-like RAW 264.7 cells (American Type Culture Collection, Rockville, Md.) were cultured in RPMI 1640 medium (Life Technologies, Grand Island, N.Y.) supplemented with 10% fetal bovine serum (Gemini, Catabasas, Calif.), penicillin and streptomycin (Life Technologies) and were used at 90% confluence in serum-free Opti-MEM I medium (Life Technologies, Grand Island, N.Y.). […] Polymyxin B was not used in experiments of synthetic peptide studies.
TNF release was measured by a standard murine fibroblast L929 (ATCC, American Type Culture Collection, Rockville, Md.) cytotoxicity bioassay (Bianchi et al., Journal of Experimental Medicine 183:927-936, 1996) with the minimum detectable concentration of 30 pg/ml. Recombinant mouse TNF was obtained from R&D system Inc., (Minneapolis, Minn.). Murine fibroblast L929 cells (ATCC) were cultured in DMEM (Life Technologies, Grand Island, N.Y.) supplemented with 10% fetal bovine serum (Gemini, Catabasas, Calif.), penicillin (50 units/ml) and streptomycin (50 μg/ml) (Life Technologies) in a humidified incubator with 5% CO2.
The effect of the mutants on TNF release from Murine macrophage-like RAW 264.7 cells (ATCC) was carried out as follows. RAW 264.7 cells were cultured in RPMI 1640 medium (Life Technologies, Grand Island, N.Y.) supplemented with 10% fetal bovine serum (Gemini, Catabasas, Calif.), penicillin and streptomycin (Life Technologies). Polymyxin (Sigma, St. Louis, Mo.) was added at 100 units/ml to suppress the activity of any contaminating LPS. Cells were incubated with 1 μg/ml of full length (wild-type) HMGB1 and each HMGB1 mutant protein in Opti-MEM I medium for 8 hours. Conditioned supernatants (containing TNF which had been released from the cells) were collected and TNF released from the cells was measured by a standard murine fibroblast L929 (ATCC) cytotoxicity bioassay (Bianchi et al., supra) with the minimum detectable concentration of 30 pg/ml. Recombinant mouse TNF was obtained from R & D Systems Inc., (Minneapolis, Minn.) and used as control in these experiments. Data in FIG. 1 are all presented as mean±SEM unless otherwise indicated. (N=6−10).
To further examine the effect of HMGB1 B box on cytokine production, varying amounts of HMGB1 B box were evaluated for the effects on TNF, IL-1B, and IL-6 production in murine macrophage-like RAW 264.7 cells. Conditioned media were harvested and measured for TNF, IL-1β and IL-6 levels. TNF levels were measured as described herein, and IL-1β and IL-6 levels were measured using the mouse IL-1β and IL-6 enzyme-linked immunosorbent assay (ELISA) kits (R&D System Inc., Minneapolis, Minn.) and N>5 for all experiments.
The kinetics of B box-induced TNF release were also examined. TNF release and TNF mRNA expression were measured in RAW 264.7 cells induced by B box polypeptide or GST tag polypeptide only (used as a control (vector)) (10 μg/ml) for 0 to 48 hours. Supernatants were analyzed for TNF protein levels by an L929 cytotoxicity assay (N=3-5) as described herein. For mRNA measurement, cells were plated in 100 mm plates and treated in Opti-MEM I medium containing B box polypeptide or the vector alone for 0, 4, 8, or 24 hours, as indicated in FIG. 2D. The vector only sample was assayed at the 4 hour time point. Cells were scraped off the plate and total RNA was isolated using the RNAzol B method in accordance with the manufacturer's instructions (Tel-Test “B”, Inc., Friendswood, Tex.). TNF (287 bp) was measured by RNase protection assay (Ambion, Austin, Tex.). Equal loading and the integrity of RNA was verified by ethidium bromide staining of the RNA sample on an agarose-formaldehyde gel. […] TNF mRNA expression was maximal at 4 hours and decreased at 8 and 24 hours. […] A similar study was carried out measuring TNF protein released from RAW 264.7 cells 0, 4, 8, 24, 32 or 48 hours after administration of B box or vector only (GST tag), using the L929 cytotoxicity assay described herein. […]

[1] = target: Recombinant full length human HMGB1 (wild type HMGB1) (human); experiment: cell-based or functional assay
[2] = target: RAGE on RAW 264.7 cells (mouse (murine RAW 264.7 cells)) (UniProt Q62151); experiment: cell-based or functional assay
Chain of RAGE on RAW 264.7 cells (mouse (murine RAW 264.7 cells)) (Q62151 23-402): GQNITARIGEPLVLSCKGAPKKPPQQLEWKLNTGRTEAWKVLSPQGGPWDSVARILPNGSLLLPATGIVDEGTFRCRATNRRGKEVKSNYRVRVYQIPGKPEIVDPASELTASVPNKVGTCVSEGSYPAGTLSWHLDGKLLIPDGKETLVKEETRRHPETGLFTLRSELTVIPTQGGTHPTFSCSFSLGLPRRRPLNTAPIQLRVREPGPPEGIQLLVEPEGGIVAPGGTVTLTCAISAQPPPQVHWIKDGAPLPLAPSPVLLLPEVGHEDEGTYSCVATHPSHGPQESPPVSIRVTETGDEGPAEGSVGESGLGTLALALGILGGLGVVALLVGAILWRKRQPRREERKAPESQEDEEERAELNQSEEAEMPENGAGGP

[3] = system: Balb/c mice subjected to CLP; experiment: Cecal ligation and puncture (CLP) sepsis, survival of Balb/c mice; format: in vivo
Method: Cecal ligation and puncture (CLP) was performed as described previously (Fink and Heard, J. Surg. Res. 49:186-196, 1990; Wichmann et al., Crit. Care Med. 26:2078-2086, 1998; and Remick et al., Shock 4:89-95, 1995). Briefly, Balb/c mice were anesthetized with 75 mg/kg ketamine (Fort Dodge, Fort Dodge, Iowa) and 20 mg/kg of xylazine (Bohringer Ingelheim, St. Joseph, Mo.) intramuscularly. A midline incision was performed, and the cecum was isolated. A 6-0 prolene suture ligature was placed at a level 5.0 mm from the cecal tip away from the ileocecal valve.
The ligated cecal stump was then punctured once with a 22-gauge needle, without direct extrusion of stool. The cecum was then placed back into its normal intra-abdominal position. […] Mortality was recorded for up to 1 week after the procedure; survivors were followed for 2 weeks to ensure no late mortalities had occurred.
To determine whether the HMGB1 A box can inhibit the lethality of HMGB1 during sepsis, mice were subjected to cecal perforation and treated by administration of A box beginning 24 hours after the onset of sepsis. […] Survival was monitored twice daily for up to 2 weeks to ensure no late death occurred. […]
Passive immunization of critically ill septic mice with anti-HMGB1 antibodies was also assessed. […] Survival was monitored for 2 weeks. […]

[4] = system: HMGB1 induced TNF release; experiment: A box inhibition of HMGB1 induced TNF release from RAW 264.7 cells; format: cell-based, murine; details: co-addition with HMGB1, 16 hours, TNF ELISA (FIG. 4B)
Method: Weak agonists are by definition antagonists. […] This study was carried out as follows. Sub-confluent RAW 264.7 cells in 24-well dishes were treated with HMGB1 (1 μg/ml) and 0, 5, 10, or 25 μg/ml of A box for 16 hours in Opti-MEM I medium in the presence of polymyxin B (100 units/ml). The TNF-stimulating activity (assayed using the L929 cytotoxicity assay described herein) in the sample receiving no A box was expressed as 100%, and the inhibition by A box was expressed as percent of HMGB1 alone. […] Data in FIG. 4A are presented as mean±SD (n=2-3 independent experiments).
Antagonism of full length HMGB1 activity by HMGB1 A box or GST tag (vector control) was also determined by measuring TNF release from RAW 264.7 macrophage cultures stimulated by co-addition of A box with full length HMGB1. RAW 264.7 macrophage cells (ATCC) were seeded into 24-well tissue culture plates and used at 90% confluence. The cells were treated with HMGB1, and/or A boxes as indicated for 16 hours in Optimum I medium (Life Technologies, Grand Island, N.Y.) in the presence of polymyxin B (100 units/ml, Sigma, St. Louis, Mo.) and supernatants were collected for TNF measurement (mouse ELISA kit from R&D System Inc, Minneapolis, Minn.). TNF-inducing activity was expressed as a percentage of the activity achieved with HMGB1 alone. […]

Q: “16-25: Synthetic peptide fragment containing amino acids 16-25 of the HMGB1 B box (SEQ ID NO:20) (LFCSEYRPKI; listed as Homo sapiens)” was tested. Which “TNF release by synthetic B box peptide fragments” value (RAW 264.7 cells) did it give?
A: The value was “did not induce TNF release”.

Q: “30-49: Synthetic peptide fragment containing amino acids 30-49 of the HMGB1 B box (SEQ ID NO:20) (PGLSIGDVAKKLGEMWNNTA; listed as Homo sapiens)” was tested. Which “TNF release by synthetic B box peptide fragments” value (RAW 264.7 cells) did it give?
A: Its value is “did not induce TNF release”.

Q: Which “TNF release by synthetic B box peptide fragments” value (RAW 264.7 cells) does the source give for “45-64: Synthetic peptide fragment containing amino acids 45-64 of the HMGB1 B box (SEQ ID NO:20) (WNNTAADDKQPYEKKAAKLK; listed as Homo sapiens)” here?
A: Its value is “did not induce TNF release”.

Q: “60-74: Synthetic peptide fragment containing amino acids 60-74 of the HMGB1 B box (SEQ ID NO:20) (AAKLKEKYEKDIAAY; listed as Homo sapiens)” was tested. Which “TNF release by synthetic B box peptide fragments” value (RAW 264.7 cells) did it give?
A: Its value is “did not induce TNF release”.

Q: How did the inhibition of HMGB1 (1 µg/ml) induced TNF release from RAW 264.7 cells, L929 cytotoxicity assay [1] turn out when “HMGB1 Amino terminus+A box mutant (human HMGB1 A box polypeptide) (from UniProt A9RA84 1-85)” was run?
A: Its inhibition of HMGB1 (1 µg/ml) induced TNF release from RAW 264.7 cells, L929 cytotoxicity assay is 7.5 µg/mL.

Q: How did the decrease of HMGB1 (1 µg/ml) induced TNF release from RAW 264.7 cells by anti-RAGE antibody (25 µg/ml) [2] turn out when “Recombinant full length human HMGB1 (wild type HMGB1) (from UniProt A9RA84 1-215) (ligand)” was run?
A: The decrease of HMGB1 (1 µg/ml) induced TNF release from RAW 264.7 cells by anti-RAGE antibody (25 µg/ml) was 40%.

Q: Which “TNF stimulating potency compared with full length B box and HMGB1” value (RAW 264.7 cells; peptide 10 μg/ml vs B box 1 μg/ml, 10 hours) does the source give for “fkdpnapkrlpsafflfcse (FKDPNAPKRLPSAFFLFCSE; listed as Homo sapiens) [1-20-mer]” here?
A: Its value is “less potent than either the full length synthetic B box (1-74-mer), or full length HMGB1”.

Q: And the “TNF release by synthetic B box peptide fragments” value (RAW 264.7 cells)?
A: The value was “TNF-stimulating activity was retained”.

B1: A box: Human HMGB1 mutant containing only the A box, SEQ ID NO:21 (A box SEQ ID NO:22) (protein, listed as Homo sapiens)
chain: MGKGDPKKPTGKMSSYAFFVQTCREEHKKKHPDASVNFSEFSKKCSERWKTMSAKEKGKFEDMAKADKARYEREMKTYIPPKGET
Q: For B1, which outcome of animals ([3]; 60 μg/mouse) is on record?
A: Its outcome of animals is “most died”.

Q: And the “clinical behaviour of animals” value ([3]; 600 μg/mouse, vs vector controls or 60 μg)?
A: The value was “significantly more alert, active, and to resume feeding behavior”.

Q: And the “effect on TNF stimulating activity of full length HMGB1” value [4]?
A: The value was “significantly attenuated the TNF stimulating activity of full length HMGB1”.
